Molecular target: T1, GRPR (Homo sapiens, UniProt P30550)
T1 construct: endogenous in cells; host or cells: PC-3 prostate cancer cells
Assay: In vitro competition binding assay, displacement of [^125I-Tyr^4]bombesin on GRPR-expressing PC-3 cells
Settings: n = 2-3, read-out: Binding affinities Ki Mean
Experimental: PC-3 cells were seeded at 2×10^5 cells/well in 24-well poly-D-lysine plates 24-48 hours prior to the experiment. The growth medium was replaced by 400 μL of reaction medium (RPMI 1640 containing 2 mg/mL BSA, 4.8 mg/mL HEPES, 1 U/mL penicillin G and 1 μg/mL streptomycin). Cells were incubated for 30-60 min at 37° C. […] The cells were incubated with moderate agitation for 1 h at 27° C., washed twice with ice-cold PBS, harvested by trypsinization, and measured for radioactivity on the gamma counter. Data were analyzed using nonlinear regression (one binding site model for competition assay) with GraphPad Prism 8.
In vitro competition binding assays were performed according to the procedure outlined in Example 1.

T1 sequence (P30550 whole entry): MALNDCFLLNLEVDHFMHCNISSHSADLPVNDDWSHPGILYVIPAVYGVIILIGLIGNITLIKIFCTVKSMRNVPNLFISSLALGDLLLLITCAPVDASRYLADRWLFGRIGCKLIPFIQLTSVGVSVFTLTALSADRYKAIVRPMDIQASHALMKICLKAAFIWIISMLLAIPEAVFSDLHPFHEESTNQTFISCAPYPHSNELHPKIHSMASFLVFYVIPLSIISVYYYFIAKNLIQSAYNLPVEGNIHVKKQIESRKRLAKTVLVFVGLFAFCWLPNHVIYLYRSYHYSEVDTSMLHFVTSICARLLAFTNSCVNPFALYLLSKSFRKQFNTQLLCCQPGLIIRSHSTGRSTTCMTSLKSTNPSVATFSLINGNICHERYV

Structure (SMILES)	Ki
CC(C)C[C@@H](CN1CSC[C@H]1C(N)=O)NC(=O)[C@H](Cc1c[nH]cn1)NC(=O)CNC(=O)[C@@H](NC(=O)[C@H](C)NC(=O)[C@H](Cc1c[nH]c2ccccc12)NC(=O)[C@H](CCC(N)=O)NC(=O)[C@H]1Cc2c([nH]c3ccccc23)CN1C(=O)CN1CCC(NC(=O)CN2CCN(CC(=O)O)CCN(CC(=O)O)CCN(CC(=O)O)CC2)CC1)C(C)C [LW01061, DOTA-Pip-D-Tpi-Gln-Trp-Ala-Val-Gly-His-Leu-ψ-Thz-NH2]	> 400 nM
CC(C)C[C@H](NC(=O)[C@H](Cc1cnc[nH]1)NC(=O)CNC(=O)[C@@H](NC(=O)[C@H](C)NC(=O)[C@H](Cc1c[nH]c2ccccc12)NC(=O)[C@H](CCC(N)=O)NC(=O)[C@H](N)Cc1ccccc1)C(C)(C)C)C(=O)N1CSC[C@H]1C(N)=O [LW01080, D-Phe-Gln-Trp-Ala-Tle-Gly-His-Leu-Thz-NH2]	3.56 nM
CC(C)C[C@H](NC(=O)[C@H](Cc1cnc[nH]1)NC(=O)CNC(=O)[C@@H](NC(=O)[C@H](C)NC(=O)[C@H](Cc1c[nH]c2ccccc12)NC(=O)[C@H](CCC(N)=O)NC(=O)[C@H](N)Cc1ccccc1)C(C)C)C(=O)N1CSC[C@H]1C(N)=O [LW01085]	8.77 nM
CC(C)C[C@H](NC(=O)[C@H](Cc1cnc[nH]1)N(C)C(=O)CNC(=O)[C@@H](NC(=O)[C@H](C)NC(=O)[C@H](Cc1c[nH]c2ccccc12)NC(=O)[C@H](CCC(N)=O)NC(=O)[C@H](N)Cc1ccccc1)C(C)C)C(=O)N1CSC[C@H]1C(N)=O [LW01088, D-Phe-Gln-Trp-Ala-Val-Gly-NMe-His-Leu-Thz-NH2]	9 nM
CC(C)C[C@H](NC(=O)[C@H](Cc1cnc[nH]1)NC(=O)CNC(=O)[C@@H](NC(=O)[C@H](C)NC(=O)[C@H](Cc1cn(C)c2ccccc12)NC(=O)[C@H](CCC(N)=O)NC(=O)[C@H](N)Cc1ccccc1)C(C)C)C(=O)N1CSC[C@H]1C(N)=O [LW01136]	35.7 nM

Now from value to compound:

Ki	Structure (SMILES)
17.9 nM	CC(C)C[C@H](NC(=O)[C@H](Cc1c[nH]cn1)NC(=O)CNC(=O)[C@@H](NC(=O)[C@H](C)NC(=O)[C@H](Cc1c[nH]c2ccc(F)cc12)NC(=O)[C@H](CCC(N)=O)NC(=O)[C@H](N)Cc1ccccc1)C(C)C)C(=O)N1CSC[C@H]1C(N)=O [LW01166]
46.9 nM	CC(C)C[C@H](NC(=O)[C@H](Cc1c[nH]cn1)NC(=O)CNC(=O)[C@@H](NC(=O)[C@H](C)NC(=O)[C@H](Cc1c[nH]c2cc(F)ccc12)NC(=O)[C@H](CCC(N)=O)NC(=O)[C@H](N)Cc1ccccc1)C(C)C)C(=O)N1CSC[C@H]1C(N)=O [LW01175]
9.38 nM	CC(C)C[C@H](NC(=O)[C@H](Cc1c[nH]cn1)NC(=O)CNC(=O)[C@@H](NC(=O)[C@H](C)NC(=O)[C@H](Cc1c[nH]c2c(F)cccc12)NC(=O)[C@H](CCC(N)=O)NC(=O)[C@H](N)Cc1ccccc1)C(C)C)C(=O)N1CSC[C@H]1C(N)=O [LW01177, D-Phe-Gln-7-F-Trp-Ala-Val-Gly-His-Leu-Thz-NH2]
43.4 nM	CC(C)C[C@H](NC(=O)[C@H](Cc1c[nH]cn1)NC(=O)CNC(=O)[C@@H](NC(=O)[C@H](C)NC(=O)[C@H](Cc1c[nH]c2cccc(F)c12)NC(=O)[C@H](CCC(N)=O)NC(=O)[C@H](N)Cc1ccccc1)C(C)C)C(=O)N1CSC[C@H]1C(N)=O [LW01180]

Source: patent publication US12246076B2, “Radiolabeled compounds for in vivo imaging of gastrin-releasing peptide receptor (GRPR) and treatment of GRPR-related disorders” (PROVINCIAL HEALTH SERVICES AUTHORITY, priority 2022, dated 2025)
